# Data: patent US8383608B2, “Imidazolidine compounds as androgen receptor modulators” (Dart Therapeutics LLC, priority 2008, dated 2013)
# Where two headings read alike, the source gives them in different places.
# Legend:
# [1] = molecular target: T1, human androgen receptor (hAR) (Homo sapiens, UniProt P10275); assay: Functional response (transactivation) test in HALP2 cells (HeLa stably expressing hAR and ARE-luciferase reporter); type: cell-based; details: for Emax: HeLa, read-out: % effect relative to DHT (100%)
# T1 construct: expressed in transfected cells
# T1 sequence (P10275 1-920): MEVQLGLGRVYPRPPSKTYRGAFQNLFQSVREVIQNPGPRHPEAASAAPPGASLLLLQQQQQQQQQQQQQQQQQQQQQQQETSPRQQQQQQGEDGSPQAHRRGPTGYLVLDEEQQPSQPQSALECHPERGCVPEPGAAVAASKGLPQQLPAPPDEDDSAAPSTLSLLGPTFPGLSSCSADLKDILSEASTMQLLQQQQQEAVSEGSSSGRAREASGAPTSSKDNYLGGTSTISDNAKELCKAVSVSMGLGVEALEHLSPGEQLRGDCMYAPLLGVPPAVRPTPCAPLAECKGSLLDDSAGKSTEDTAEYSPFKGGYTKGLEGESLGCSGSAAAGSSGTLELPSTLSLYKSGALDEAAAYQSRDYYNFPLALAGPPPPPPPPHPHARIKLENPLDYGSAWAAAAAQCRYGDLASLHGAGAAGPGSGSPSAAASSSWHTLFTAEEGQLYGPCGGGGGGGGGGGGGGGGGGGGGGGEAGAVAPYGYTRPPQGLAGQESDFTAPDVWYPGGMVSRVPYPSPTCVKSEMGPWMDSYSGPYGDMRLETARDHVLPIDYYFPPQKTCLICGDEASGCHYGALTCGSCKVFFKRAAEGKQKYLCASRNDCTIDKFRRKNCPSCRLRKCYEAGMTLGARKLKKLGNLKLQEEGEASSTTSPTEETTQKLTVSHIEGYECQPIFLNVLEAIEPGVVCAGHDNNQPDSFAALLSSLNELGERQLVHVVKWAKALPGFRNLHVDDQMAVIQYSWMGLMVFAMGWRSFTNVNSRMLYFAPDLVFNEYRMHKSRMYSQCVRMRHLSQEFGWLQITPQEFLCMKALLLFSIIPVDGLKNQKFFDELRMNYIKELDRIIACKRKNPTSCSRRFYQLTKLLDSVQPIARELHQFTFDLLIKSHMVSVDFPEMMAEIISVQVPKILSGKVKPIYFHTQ
# Source text: This test constitutes a method of identifying pure or partial agonists which mimic the effects of natural hormones, such as DHT (dihydrotestosterone) in the present case or, on the other hand, antagonists which inhibit them.
# For this transactivation test, plasmids encoding a reporter gene and the human androgen receptor (hAR) are introduced together by transfection into the HeLa cell line. The reporter plasmid contains luciferase cDNA under the control of the AREs contained in the promoter sequences of the probasin gene (3xpbAREminicoll-luciferase/pGL3-puro). The expression of the reporter gene constitutes an indication of the transcriptional activity of hAR. It also encodes a protein allowing the cells expressing it to resist a treatment with puromycin. The plasmid encoding hAR contains the cDNA of hAR under the control of the Cytomegalovirus (CMV) promoter. It also encodes a protein allowing the cells expressing it to resist a treatment with neomycin. The treatment of cells with increasing amounts of potentially agonistic compounds will increase the expression of the reporter gene. To detect antagonists, on the other hand, increasing doses of test compounds are tested in the presence of […] of DHT. The expression of the reporter gene, which is constant for each dose of DHT, decreases when the concentration of the test compounds increases.
# The functional response test is conducted on 96-well plates. The HALP2 cells are seeded (20,000 cells per well) in culture medium (DMEM with phenol red, 1% de Pen-Strep, 1% of non-essential amino acids, 10% of fetal bovine serum, 400 μg/mL Geneticin and 0.150 puromycin) on day 1. After 24 hours incubating at 37° C., 5% CO2, high humidity (day 2) the medium is removed and refreshed with test medium (DMEM without phenol red supplemented, 1% de Pen-Strep, 1% of non-essential amino acids and 5% of desteroidised foetal bovine serum). After another 24 hours incubating at 37° C., 5% CO2, high humidity (day 3), the medium is renewed once more before the phase of stimulation.
# The cells are placed in contact with the compounds for 24 hours at 37° C., 5% CO2, high humidity. On day 4 the medium is then removed and the luciferase activity reading reagent is placed in contact with the cells in accordance with the manufacturer's instructions (SteadyLite, Perkin-Elmer). The luminescence produced is detected on an Envision reader (Perkin-Elmer). […]
# The determination of the relative agonism/antagonism of a compound is obtained by comparing the maximal activation obtained with said compound and the activation obtained with DHT alone (100%).
# [2] = test system: castrated immature young rats; assay: Adapted model of Hershberger's test; type: in vivo, Sprague Dawley rats; details: Rattus norvegicus, po, 96 h, ORX control = 0%, SHAM control = 100%, per os daily for 4 days, dose tested 10 mg/kg
# Procedure: The selective modulating activity of the androgen receptor is tested in a model of castrated immature young rats. This model, which is widely recognised for evaluating the anabolic effects of androgen compounds on the muscles and on the prostate, has been described by Hershberger et al. 1953 Proc. Soc. Expt. Biol. Med. 83:175.
# The method is based on the measurement of the well-known effects of androgens on the growth of the muscles and the accessory male sex organs in animals, and also in men. The consequences of castration appear in the form of a rapid involution and atrophy of the prostate and the seminal vesicles and of the anus-lifting muscle (levator ani). This effect may be completely compensated by an exogeneous administration of androgen, in particular of testosterone. The model is thus used to determine the capacity of the tested molecules to maintain the weight of the accessory sex and muscle organs in immature castrated rats, and therefore their androgenic efficacy.
# Immature young Sprague Dawley rats (4 to 5 weeks old) weighing approximately 140-160 g (Charles River, Les Oncins, FRANCE) are distributed randomly in various groups and are kept in an environment at 22±2° C. with an alternating day/night cycle of 12 hours and ad libitum access to food and drink.
# On day 0 (seven days before commencement of the first treatment) the rats are weighed individually then anaesthetised with an intraperitoneal dose of Ketamine/xylazine (85/15 mg/kg, approximately 2 ml/kg). Each animal is then placed on a sterile field and the abdomen and the scrotum are disinfected with Betadine and 70% alcohol. In the case of the orchidectomised control animals (ORX), the testicles are removed via an incision in the middle of the scrotum. A sterile suture is then made to ligature the supra-testicular portion of the tissue prior to surgical section of each testicle. The groups of animals to be treated by the tested compounds are operated on in an identical manner. In the case of the intact control animals (SHAM), the testicles are similarly extracted and reintroduced delicately to their original location. The site of surgical intervention is then sutured using sterile suture thread, and the site is disinfected again by application of Betadine. Each animal is then kept under a sterile pad until it awoke, before being returned to its cage. The animals are kept in an environment at 22±2° C. with an alternating day/night cycle of 12 hours and ad libitum access to food and drink. The animals are treated with the molecules to be tested from post-surgery day 7 and until day 10 preceding sacrifice (day 11).
# The rats are split into groups and treated daily from day 7 to day 10 under the conditions defined below: • 1. SHAM control group: Vehicle (PEG400/DMSO/water; 79/1/20) administered per os. • 2. ORX control group: Vehicle (PEG400/DMSO/water; 79/1/20) administered per os. • 3. Treated ORX group: The tested compounds are administered individually per os in suspension in the vehicle described above, in a dose of 10 mg/kg.
# After treatment for 4 successive days, the animals are decapitated using a guillotine. The levator ani and the ventral prostate are removed and weighed individually. For comparing inter-experimental data, the weight of each organ is standardised and expressed in milligrammes per 100 g of the weight of the animal (W). For each organ, the average of the standardised weights of the ORX control group is fixed by definition at 0% and the average of the standardised weights of the SHAM control group is fixed by definition at 100%. The efficacy of each product is expressed as a percentage and calculated using the following formula: (Wtreated−WORX)/(WSHAM−WORX)×100
# A subsequent ANOVA test is used for statistical analysis to identify the differences between groups.
# [3] = maximal activation by the compound compared with DHT alone (100%), HALP2 cells
# [4] = agonism: concentration inducing 50% of the maximum agonistic effect of the tested compound, HALP2 cells, 24 hours, read-out: EC50
# [5] = levator ani weight, read-out: Anabolic activity %
# [6] = ventral prostate weight, read-out: Androgenic activity % (Prostate)
SMILES,"Emax [1, 3]","EC50 [1, 4]","response vs control in vivo at 10 mg/kg [2, 5]","response vs control in vivo at 10 mg/kg [2, 6]","% effect relative to DHT (100%) [1, 3]",EC50 [1],Emax [1]
"CCC(O)C1(c2ccccc2)C(=O)N(c2ccc(C#N)c(C(F)(F)F)c2)C(=O)N1C (single isomer, unassigned) [Example 2, 4-[2,5-Dioxo-4-(1-hydroxypropyl)-3-methyl-4-phenylimidazolidin-1-yl]-2-trifluoromethylbenzonitrile]",0 to 5%,,,,,,
CN1C(=O)N(c2ccc(C#N)c(C(F)(F)F)c2)C(=O)C1(CO)c1cccc(Cl)c1 (stereo not drawn) [Example 9],41 to 50%,0.01 to 10 nM,50 to 75%,0.5 to 25%,,,
"CN1C(=O)N(c2ccc(C#N)c(C(F)(F)F)c2)C(=O)C1(CO)c1ccc(C#N)cc1 (stereo not drawn) [Example 13, 4-[4-(4-Cyanophenyl)-2,5-dioxo-4-hydroxymethyl-3-methylimidazolidin-1-yl)-2-trifluoromethylbenzonitrile]",0 to 5%,,0.5 to 25%,0.5 to 25%,,,
"CN1C(=O)N(c2ccc(C#N)c(C(F)(F)F)c2)C(=O)C1(CO)c1cccc(C#N)c1 (stereo not drawn) [Example 14, 4-[4-(3-Cyanophenyl)-2,5-dioxo-4-hydroxymethyl-3-methylimidazolidin-1-yl)-2-trifluoromethylbenzonitrile]",21 to 40%,101 to 500 nM,75 to 100%,25 to 50%,,,
"CN1C(=O)N(c2ccc(C#N)c(C(F)(F)F)c2)C(=O)C1(CO)c1cccc(C(F)(F)F)c1 (stereo not drawn) [Example 15, 4-[2,5-Dioxo-4-hydroxymethyl-3-methyl-4-(3-trifluoromethylphenyl)imidazolidin-1-yl)-2-trifluoromethylbenzonitrile]",21 to 40%,101 to 500 nM,25 to 50%,0%,,,
"CN1C(=O)N(c2ccc(Cl)c(Cl)c2)C(=O)C1(CO)c1ccccc1 (stereo not drawn) [Example 16, 1-(3,4-Dichlorophenyl)-4-hydroxymethyl-3-methyl-4-phenylimidazolidine-2,5-dione]",6 to 20%,101 to 500 nM,75 to 100%,0.5 to 25%,,,
"CC(C)N1C(=O)N(c2ccc(C#N)c(C(F)(F)F)c2)C(=O)C1(CO)c1ccccc1 (stereo not drawn) [Example 17, 4-[2,5-Dioxo-4-(hydroxymethyl)-3-(1-methylethyl)-4-phenylimidazolidin-1-yl]-2-trifluoromethylbenzonitrile]",41 to 50%,101 to 500 nM,75 to 100%,50 to 75%,,,
"N#CCN1C(=O)N(c2ccc(C#N)c(C(F)(F)F)c2)C(=O)C1(CO)c1ccccc1 (stereo not drawn) [Example 18, 4-[3-Cyanomethyl-2,5-dioxo-4-(hydroxymethyl)-4-phenylimidazolidin-1-yl]-2-trifluoromethylbenzonitrile]",6 to 20%,501 to 1000 nM,75 to 100%,0.5 to 25%,,,
C#CCN1C(=O)N(c2ccc(C#N)c(C(F)(F)F)c2)C(=O)C1(CO)c1ccccc1 (stereo not drawn) [Example 19],6 to 20%,101 to 500 nM,75 to 100%,25 to 50%,,,
"N#Cc1ccc(N2C(=O)NC(CO)(c3ccccc3)C2=O)cc1C(F)(F)F (stereo not drawn) [Example 20, 4-[2,5-Dioxo-4-hydroxymethyl-4-phenylimidazolidin-1-yl]-2-trifluoromethylbenzonitrile]",,,,,§ (0-5%),,
"CN1C(=O)N(c2ccc(C#N)c(C(F)(F)F)c2)C(=O)C1(COP(=O)(O)O)c1ccccc1 (stereo not drawn) [Example 24, [1-(4-Cyano-3-trifluoromethylphenyl)-2,5-dioxo-3-methyl-4-phenylimidazolidin-4-yl]methyl dihydrogen phosphate]",21 to 40%,0.01 to 10 nM,,,,,
"CC(C)[C@H](N)C(=O)OCC1(c2ccccc2)C(=O)N(c2ccc(C#N)c(C(F)(F)F)c2)C(=O)N1C (stereo partly drawn) [Example 25, (2S)-1-[1-(4-Cyano-3-trifluoromethylphenyl)-2,5-dioxo-3-methyl-4-phenylimidazolidin-4-yl]methoxy-3-methyl-1-oxobutan-2-aminium chloride]",,,,,,11 to 100 nM,21 to 40%
"CN1C(=O)N(c2ccc(C#N)c(C(F)(F)F)c2)C(=O)C1(COC(=O)CCC(=O)O)c1ccccc1 (stereo not drawn) [Example 26, 4-[1-(4-Cyano-3-trifluoromethylphenyl)-2,5-dioxo-3-methyl-4-phenylimidazolidin-4-yl]methoxy-4-oxobutanoic acid]",,,,,,11 to 100 nM,21 to 40%
